# Reference: paper PMC8533202, “Design of Inhibitors of the Intrinsically Disordered Protein NUPR1: Balance between Drug Affinity and Target Function” (Biomolecules, 2021)
# Biological target: T1, NUPR1 (Homo sapiens, UniProt O60356)
# T1 construct: made in house
# T1 sequence (O60356 1-82): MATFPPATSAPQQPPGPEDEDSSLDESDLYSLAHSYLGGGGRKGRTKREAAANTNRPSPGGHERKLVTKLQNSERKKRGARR
# Assay: Isothermal titration calorimetry (ITC) binding to NUPR1
# Details: 25 °C, pH 7.0
# Procedure: The binding of the ZZW-115-derived compounds to NUPR1 was determined as described by using a high sensitivity isothermal titration calorimeter Auto-iTC200 (MicroCal, Malvern-Panalytical, Malvern, UK). Protein samples and solutions were properly degassed. Experiments were performed with freshly prepared protein solutions at 25 °C. A solution of NUPR1 (20 μM, in sodium phosphate 20 mM, pH 7.0, 2% DMSO) in the calorimetric cell was titrated with a solution of each compound (200 μM, in sodium phosphate 20 mM pH 7.0, 2% DMSO). The inhibitors were dissolved in the same buffer used for the protein. A standard protocol was employed: 19 titrant injections with 2 μL compound solution were programmed with a time spacing of 150 s, a stirring speed of 750 rpm, and a reference power of 10 μcal/s. The heat evolved after each ligand injection was calculated from the integral of the calorimetric signal. The heat due to the binding reaction was obtained as the difference between the reaction heat and the corresponding heat of injection, the latter estimated as a constant value throughout the experiment, and included as an adjustable parameter in the analysis. Control experiments (with the compounds injected into the buffer) were performed under the same experimental conditions.
# The association constant (Ka), the enthalpy change (ΔH) and the stoichiometry (n) of the binding reaction were obtained through nonlinear regression analysis of experimental data to a model assuming a single ligand binding site for the protein. Experiments were performed in replicate and data were analyzed using in-house-developed software implemented in Origin 7 (OriginLab).
# The interaction between ZZW-115-Derived compounds and NUPR1 was studied by using ITC, the gold-standard technique in binding-affinity determination, to test our theoretical prediction. […] From the thermogram (thermal power as a function of time), the binding isotherm (ligand-normalized heat as a function of the molar ratio) was obtained through integration of the individual heat effect associated with injection of each ligand solution (Figure 3). We used a nonlinear least-squares regression analysis employing a model that considered a single binding site in NUPR1 to estimate binding parameters such as the dissociation constant and the binding enthalpy.
Compound,N (stoichiometry),ΔG [kcal mol^–1],ΔH [kcal mol^–1],−TΔS [kcal mol^–1]
CCN(CC)CCCN1CCN(CCCN2c3ccccc3Sc3ccc(C(F)(F)F)cc32)CC1 [ZZW-143],1.2 ± 0.1,−6.4 ± 0.1,0.8 ± 0.4,−7.2 ± 0.4
FC(F)(F)c1ccc2c(c1)N(CCCN1CCN(CCCN3CCCC3)CC1)c1ccccc1S2 [ZZW-144],1.2 ± 0.1,−6.7 ± 0.1,0.5 ± 0.5,−7.2 ± 0.5
FC(F)(F)c1ccc2c(c1)N(CCCN1CCN(CCCN3CCCCC3)CC1)c1ccccc1S2 [ZZW-145],1.2 ± 0.1,−6.7 ± 0.1,0.7 ± 0.5,−7.4 ± 0.5
FC(F)(F)c1ccc2c(c1)N(CCCN1CCN(CCCN3CCOCC3)CC1)c1ccccc1S2 [ZZW-148],1.2 ± 0.1,−6.8 ± 0.1,0.7 ± 0.5,−7.5 ± 0.5

# Same assay, conditions: 25 °C, sodium phosphate 20 mM, pH 7.0, 2% DMSO
row,Compound,Ka [M^–1 × 10^5]
1,CCN(CC)CCCN1CCN(CCCN2c3ccccc3Sc3ccc(C(F)(F)F)cc32)CC1 [ZZW-143],0.5 ± 0.1
2,FC(F)(F)c1ccc2c(c1)N(CCCN1CCN(CCCN3CCCC3)CC1)c1ccccc1S2 [ZZW-144],0.85 ± 0.8
3,FC(F)(F)c1ccc2c(c1)N(CCCN1CCN(CCCN3CCCCC3)CC1)c1ccccc1S2 [ZZW-145],0.82 ± 0.9
4,FC(F)(F)c1ccc2c(c1)N(CCCN1CCN(CCCN3CCOCC3)CC1)c1ccccc1S2 [ZZW-148],1.0 ± 0.1

# Same assay, conditions: 25 °C, sodium phosphate 20 mM, pH 7.0, 2% DMSO, read-out: Kd (=1/Ka)
row,Compound,Kd [µM]
1,CCN(CC)CCCN1CCN(CCCN2c3ccccc3Sc3ccc(C(F)(F)F)cc32)CC1 [ZZW-143],20 ± 4
2,FC(F)(F)c1ccc2c(c1)N(CCCN1CCN(CCCN3CCCC3)CC1)c1ccccc1S2 [ZZW-144],12 ± 1
3,FC(F)(F)c1ccc2c(c1)N(CCCN1CCN(CCCN3CCCCC3)CC1)c1ccccc1S2 [ZZW-145],11 ± 1
4,FC(F)(F)c1ccc2c(c1)N(CCCN1CCN(CCCN3CCOCC3)CC1)c1ccccc1S2 [ZZW-148],9.6 ± 1

# Tested on: MiaPaCa-2 cells
# Assay: Cell viability assay (PrestoBlue)
# Type: cell-based, human
# Details: Homo sapiens, MIA PaCa-2, 72 h, MiaPaCa-2, 72 h
# Procedure: (§1) Cell viability was evaluated in ten pancreatic cancer cell lines, including MiaPaCa-2, and nine primary pancreatic cancer-derived cell lines: PDAC001T, PDAC012T, PDAC021T, PDAC081T, PDAC082T, PDAC087T, PDAC088T, PDAC089T, and PDAC115T. MiaPaCa-2 cells were obtained from ATCC (Manassas, VA, USA) and maintained in DMEM (Invitrogen, Cergy-Pontoise, France), supplemented with 10% […] at 37 °C with 5% CO2. The primary pancreatic cancer-derived cells were cultured in serum free ductal media (SFDM) following a procedure adapted from those previously described, without antibiotic, and incubated at 37 °C in a 5% CO2 incubator. Cells were plated in 96-well plates (5000 cells/well) overnight. Then, the media were supplemented with the compounds to be tested at 0–100 µM concentration, and the samples were incubated for another additional 72 h before performing the measurement. Cell viability was estimated after addition of PrestoBlue™ reagent (Life Technologies, Paris, France) for 3 h according to the PrestoBlue™ cell viability reagent protocol provided by the supplier. Cell viability was normalized when comparing to untreated cell rates. Experiments were performed in triplicate and each set was repeated three times, with similar results.
row,Compound,IC50 [µM]
1,CCN(CC)CCCN1CCN(CCCN2c3ccccc3Sc3ccc(C(F)(F)F)cc32)CC1 [ZZW-143],0.29
2,FC(F)(F)c1ccc2c(c1)N(CCCN1CCN(CCCN3CCCC3)CC1)c1ccccc1S2 [ZZW-144],0.26
3,FC(F)(F)c1ccc2c(c1)N(CCCN1CCN(CCCN3CCCCC3)CC1)c1ccccc1S2 [ZZW-145],0.19
4,FC(F)(F)c1ccc2c(c1)N(CCCN1CCN(CCCN3CCOCC3)CC1)c1ccccc1S2 [ZZW-148],0.47

# Tested on: PDAC087T cells
# Assay: Cell viability assay (PrestoBlue)
# Type: cell-based
# Details: Homo sapiens; PDAC087T (basal subtype), 72 h
# Source text: (§2) Primary pancreatic cancer cells PDAC001T, PDAC012T, PDAC021T, PDAC081T, PDAC082T, PDAC087T, PDAC088T, PDAC089T, and PDAC115T were obtained from the PaCaOmics clinical trial registered at www.clinicaltrials.gov (accessed on 2 October 2021) with registration number NCT01692873. We included PDAC samples from both echoendoscopic ultrasound-guided fine-needle (EUS-FNA) biopsies for patients with unresectable tumors and from surgical specimens for patients undergoing surgery. The tumor samples of these patients were used to generate patient-derived xenograft in nude mice as previously reported. Xenografts obtained from mice were split into several small pieces and used for cell culture in a biosafety chamber: after fine mincing, they were treated with collagenase type V (ref C9263; Sigma-Aldrich, St. Louis, MO, USA) and trypsin/EDTA (ref 25200-056; Gibco, Life Technologies, Grand Island, NY, USA) and were suspended in Dulbecco’s modified Eagle’s medium supplemented with 1% w/w penicillin/streptomycin (Gibco, Life Technologies, Paisley, UK) and 10% fetal bovine serum (Lonza Inc., Walkersville, MD, USA). After centrifugation, cells were resuspended in serum-free ductal media adapted from Schreiber et al. at 37 °C in a 5% CO2 incubator. Amplified cells were stored in liquid nitrogen as previously reported. Cells were weaned from antibiotics for ≥48 h before testing.
# as §1
row,Compound,IC50 [µM]
1,CCN(CC)CCCN1CCN(CCCN2c3ccccc3Sc3ccc(C(F)(F)F)cc32)CC1 [ZZW-143],2.22
2,FC(F)(F)c1ccc2c(c1)N(CCCN1CCN(CCCN3CCCC3)CC1)c1ccccc1S2 [ZZW-144],3.57
3,FC(F)(F)c1ccc2c(c1)N(CCCN1CCN(CCCN3CCCCC3)CC1)c1ccccc1S2 [ZZW-145],2.37
4,FC(F)(F)c1ccc2c(c1)N(CCCN1CCN(CCCN3CCOCC3)CC1)c1ccccc1S2 [ZZW-148],6.57

# Tested on: PDAC081T cells
# Assay: Cell viability assay (PrestoBlue)
# Type: cell-based
# Details: Homo sapiens; PDAC081T (classical subtype), 72 h
# Source text: as §2, §1
row,Compound,IC50 [µM]
1,CCN(CC)CCCN1CCN(CCCN2c3ccccc3Sc3ccc(C(F)(F)F)cc32)CC1 [ZZW-143],0.97
2,FC(F)(F)c1ccc2c(c1)N(CCCN1CCN(CCCN3CCCC3)CC1)c1ccccc1S2 [ZZW-144],0.98
3,FC(F)(F)c1ccc2c(c1)N(CCCN1CCN(CCCN3CCCCC3)CC1)c1ccccc1S2 [ZZW-145],0.78
4,FC(F)(F)c1ccc2c(c1)N(CCCN1CCN(CCCN3CCOCC3)CC1)c1ccccc1S2 [ZZW-148],1.11

# Tested on: PDAC088T cells
# Assay: Cell viability assay (PrestoBlue)
# Type: cell-based
# Details: Homo sapiens; PDAC088T (classical subtype), 72 h
# Source text: as §2, §1
row,Compound,IC50 [µM]
1,CCN(CC)CCCN1CCN(CCCN2c3ccccc3Sc3ccc(C(F)(F)F)cc32)CC1 [ZZW-143],5.94
2,FC(F)(F)c1ccc2c(c1)N(CCCN1CCN(CCCN3CCCC3)CC1)c1ccccc1S2 [ZZW-144],5.8
3,FC(F)(F)c1ccc2c(c1)N(CCCN1CCN(CCCN3CCCCC3)CC1)c1ccccc1S2 [ZZW-145],5
4,FC(F)(F)c1ccc2c(c1)N(CCCN1CCN(CCCN3CCOCC3)CC1)c1ccccc1S2 [ZZW-148],10.7

# Tested on: PDAC115T cells
# Assay: Cell viability assay (PrestoBlue)
# Type: cell-based
# Details: Homo sapiens; PDAC115T (basal subtype), 72 h
# Source text: as §2, §1
row,Compound,IC50 [µM]
1,CCN(CC)CCCN1CCN(CCCN2c3ccccc3Sc3ccc(C(F)(F)F)cc32)CC1 [ZZW-143],2.5
2,FC(F)(F)c1ccc2c(c1)N(CCCN1CCN(CCCN3CCCC3)CC1)c1ccccc1S2 [ZZW-144],3.22
3,FC(F)(F)c1ccc2c(c1)N(CCCN1CCN(CCCN3CCCCC3)CC1)c1ccccc1S2 [ZZW-145],2.44
4,FC(F)(F)c1ccc2c(c1)N(CCCN1CCN(CCCN3CCOCC3)CC1)c1ccccc1S2 [ZZW-148],4.37

# Tested on: PDAC012T cells
# Assay: Cell viability assay (PrestoBlue)
# Type: cell-based
# Details: Homo sapiens; PDAC012T (classical subtype), 72 h
# Source text: as §2, §1
row,Compound,IC50 [µM]
1,CCN(CC)CCCN1CCN(CCCN2c3ccccc3Sc3ccc(C(F)(F)F)cc32)CC1 [ZZW-143],2.18
2,FC(F)(F)c1ccc2c(c1)N(CCCN1CCN(CCCN3CCCC3)CC1)c1ccccc1S2 [ZZW-144],2.51
3,FC(F)(F)c1ccc2c(c1)N(CCCN1CCN(CCCN3CCCCC3)CC1)c1ccccc1S2 [ZZW-145],2.36
4,FC(F)(F)c1ccc2c(c1)N(CCCN1CCN(CCCN3CCOCC3)CC1)c1ccccc1S2 [ZZW-148],3.7

# Tested on: PDAC001T cells
# Assay: Cell viability assay (PrestoBlue)
# Type: cell-based
# Details: Homo sapiens; PDAC001T (basal subtype), 72 h
# Source text: as §2, §1
row,Compound,IC50 [µM]
1,CCN(CC)CCCN1CCN(CCCN2c3ccccc3Sc3ccc(C(F)(F)F)cc32)CC1 [ZZW-143],2.31
2,FC(F)(F)c1ccc2c(c1)N(CCCN1CCN(CCCN3CCCC3)CC1)c1ccccc1S2 [ZZW-144],2.51
3,FC(F)(F)c1ccc2c(c1)N(CCCN1CCN(CCCN3CCCCC3)CC1)c1ccccc1S2 [ZZW-145],2.36
4,FC(F)(F)c1ccc2c(c1)N(CCCN1CCN(CCCN3CCOCC3)CC1)c1ccccc1S2 [ZZW-148],3.75

# Tested on: PDAC021T cells
# Assay: Cell viability assay (PrestoBlue)
# Type: cell-based
# Details: Homo sapiens; PDAC021T (basal subtype), 72 h
# Source text: as §2, §1
row,Compound,IC50 [µM]
1,CCN(CC)CCCN1CCN(CCCN2c3ccccc3Sc3ccc(C(F)(F)F)cc32)CC1 [ZZW-143],2.57
2,FC(F)(F)c1ccc2c(c1)N(CCCN1CCN(CCCN3CCCC3)CC1)c1ccccc1S2 [ZZW-144],3.69
3,FC(F)(F)c1ccc2c(c1)N(CCCN1CCN(CCCN3CCCCC3)CC1)c1ccccc1S2 [ZZW-145],2.33
4,FC(F)(F)c1ccc2c(c1)N(CCCN1CCN(CCCN3CCOCC3)CC1)c1ccccc1S2 [ZZW-148],4.35

# Tested on: PDAC089T cells
# Assay: Cell viability assay (PrestoBlue)
# Type: cell-based
# Details: Homo sapiens; PDAC089T (derived from a liver metastasis), 72 h
# Source text: as §2, §1
row,Compound,IC50 [µM]
1,CCN(CC)CCCN1CCN(CCCN2c3ccccc3Sc3ccc(C(F)(F)F)cc32)CC1 [ZZW-143],6.12
2,FC(F)(F)c1ccc2c(c1)N(CCCN1CCN(CCCN3CCCC3)CC1)c1ccccc1S2 [ZZW-144],8.38
3,FC(F)(F)c1ccc2c(c1)N(CCCN1CCN(CCCN3CCCCC3)CC1)c1ccccc1S2 [ZZW-145],6.22
4,FC(F)(F)c1ccc2c(c1)N(CCCN1CCN(CCCN3CCOCC3)CC1)c1ccccc1S2 [ZZW-148],14.8

# Tested on: PDAC082T cells
# Assay: Cell viability assay (PrestoBlue)
# Type: cell-based
# Details: Homo sapiens; PDAC082T (classical subtype), 72 h
# Source text: as §2, §1
row,Compound,IC50 [µM]
1,CCN(CC)CCCN1CCN(CCCN2c3ccccc3Sc3ccc(C(F)(F)F)cc32)CC1 [ZZW-143],3.55
2,FC(F)(F)c1ccc2c(c1)N(CCCN1CCN(CCCN3CCCC3)CC1)c1ccccc1S2 [ZZW-144],3.04
3,FC(F)(F)c1ccc2c(c1)N(CCCN1CCN(CCCN3CCCCC3)CC1)c1ccccc1S2 [ZZW-145],2.33
4,FC(F)(F)c1ccc2c(c1)N(CCCN1CCN(CCCN3CCOCC3)CC1)c1ccccc1S2 [ZZW-148],4.1
